Assay results taken from ChEMBL document CHEMBL1135798, “Structure-activity relationships of the antimalarial agent artemisinin. 6. The development of predictive in vitro potency models using CoMFA and HQSAR methodologies” (2002).

System: Plasmodium falciparum
Assay: Antimalarial activity against chloroquine-resistant, mefloquine-sensitive Plasmodium falciparum W2
Assay type: functional

Point of comparison: `C[C@@H]1CC[C@H]2[C@@H](C)C(CC(C)(F)F)O[C@@H]3O[C@@]4(C)CC[C@@H]1[C@]32OO4` (stereo partly specified), “Log RA” value -0.17. Against it:
- CCN(CC)C(=O)OCC[C@@H]1CCC[C@@H]2CC[C@@]3(C)OO[C@]21[C@H](OC)O3 — higher, 0.65
- CO[C@@H]1O[C@@]2(C)CC[C@H]3CCC[C@@H](CCOC(=O)N(C)C)[C@]31OO2 — higher, 0.33
- CCOC(=O)C[C@H](O[C@H]1O[C@@H]2O[C@@]3(C)CC[C@H]4[C@H](C)CC[C@@H]([C@H]1C)[C@@]24OO3)c1ccc([N+](=O)[O-])cc1 — higher, 1.57
- CO[C@H]1O[C@@]2(C)CC[C@H]3CCC[C@@H](CCOCc4cc[n+](C)cc4)[C@]31OO2 — lower, -0.9
- CO[C@H]1O[C@@]2(C)CC[C@H]3CCC[C@@H](CCOCc4ccccn4)[C@]31OO2 — higher, 0.17
- CCCC[C@H]1C(=O)O[C@@H]2O[C@@]3(CCC(=O)OCC)CC[C@H]4[C@H](C)CC[C@@H]1[C@@]24OO3 — lower, -1.36
- CC[C@H]1C(=O)O[C@@H]2O[C@@]3(C)CC[C@H]4[C@H](C)CC[C@@H]1[C@@]24OO3 — higher, 1.4
- CC1O[C@@H]2O[C@@]3(C)CC[C@H]4[C@H](C)CC[C@@H]1[C@@]24OO3 (stereo partly specified) — lower, -0.64
- COC(=O)CCCOC1O[C@@H]2O[C@@]3(C)CC[C@H]4[C@H](C)CC[C@@H]([C@H]1C)[C@@]24OO3 (stereo partly specified) — within 0.2 log units, -0.03
- CC(C)CN1C(=O)C[C@@H]2CC[C@@H](C)[C@@H]3CC[C@@]4(C)OO[C@@]23[C@H]1O4 — within 0.2 log units, 0.02
- CO[C@H]1O[C@@]2(C)CC[C@H]3CCC[C@@H](CCOS(=O)(=O)c4ccc(C)cc4)[C@]31OO2 — higher, 0.2
- O=S(=O)(c1ccccc1)N1C[C@]2(c3ccccc3)CC[C@@](c3ccccc3)(C1)OO2 — lower, -2.26
- C=C1C(O)O[C@@H]2O[C@@]3(C)CC[C@H]4[C@H](C)CC[C@@H]1[C@@]24OO3 (stereo partly specified) — lower, -2.39
- CCC[C@H]1C(OCC)O[C@@H]2O[C@@]3(C)CC[C@H]4[C@H](C)CC[C@@H]1[C@@]24OO3 (stereo partly specified) — within 0.2 log units, -0.04
- CCOC(=O)C[C@@H](O[C@H]1O[C@@H]2O[C@@]3(C)CC[C@H]4[C@H](C)CC[C@@H]([C@H]1C)[C@@]24OO3)c1ccc([N+](=O)[O-])cc1 — higher, 0.9
- C[C@@H]1CC[C@H]2[C@@H](C)C(=O)N[C@@H]3O[C@@]4(C)CC[C@@H]1[C@]32OO4 — within 0.2 log units, 0
- C[C@@H]1CC[C@H]2[C@@H](C)CO[C@@H]3O[C@@]4(C)CC[C@@H]1[C@]32OO4 — higher, 0.75
- CCCC[C@H]1CO[C@@H]2O[C@@]3(C)CC[C@H]4[C@H](C)CC[C@@H]1[C@@]24O3 — lower, -4
- CCO[C@H]1O[C@@H]2O[C@@]3(C)CC[C@H]4[C@H](C)CC[C@@H]([C@H]1C)[C@@]24O3 — lower, -4
- C[C@@H]1CC[C@@H]2[C@]34OO[C@](C)(CC[C@@H]13)O[C@H]4OC(Nc1ncccn1)[C@@]2(C)Br (stereo partly specified) — lower, -0.77
- C[C@@H]1CC[C@H]2[C@@H](C)C(OC(C)(C)C)O[C@@H]3O[C@@]4(C)CC[C@@H]1[C@]32OO4 (stereo partly specified) — higher, 0.92
- C[C@@H]1CC[C@@H]2[C@]34OO[C@](C)(CC[C@@H]13)O[C@H]4OC(=O)[C@@]21CCC1C[Si](C)(C)C (stereo partly specified) — lower, -1.24
- CO[C@@H]1O[C@@]2(C)CC[C@H]3CCCC[C@]31OO2 — lower, -1.04
- C=CCOCC[C@@H]1CCC[C@@H]2CC[C@@]3(C)OO[C@]21[C@@H](OC)O3 — higher, 0.4
- CO[C@H]1O[C@@]2(C)CC[C@H]3CCC[C@@H](CCOCc4ccccc4)[C@]31OO2 — higher, 0.75
- CC1C(=O)O[C@@H]2C[C@@]3(C)CC[C@H]4[C@H](C)CC[C@@H]1[C@@]24OO3 (stereo partly specified) — lower, -0.96
- CCCC[C@H]1C(=O)O[C@@H]2O[C@@]3(C)CC[C@H]4[C@H](C)CC[C@@H]1[C@@]24OO3 — higher, 0.17
- C[C@@H]1CC[C@H]2CC(=O)N(CCCc3ccccc3)[C@@H]3O[C@@]4(C)CC[C@@H]1[C@@]23OO4 — within 0.2 log units, 0.02
- CCCC[C@H]1CO[C@@H]2O[C@@]3(C)CC[C@H]4[C@H](C)CC[C@@H]1[C@@]24OO3 — higher, 1.32
- CCCCCC[C@H]1C(=O)O[C@@H]2O[C@@]3(C)CC[C@H]4[C@H](C)CC[C@@H]1[C@@]24OO3 — higher, 0.86
- CO[C@H]1O[C@@]2(C)CC[C@H]3CCC[C@@H](CCOS(=O)(=O)c4cccc5c(N(C)C)cccc45)[C@]31OO2 — higher, 0.03
- C[C@@H]1CC[C@H]2CCO[C@@H]3O[C@@]4(CCCCc5ccccc5)CC[C@@H]1[C@@]23OO4 — higher, 0.58
- C[C@@H]1CCC[C@@]23CO[C@@](C)(CC[C@@H]12)OO3 — within 0.2 log units, -0.32
- C[C@@H]1CCC[C@]23OO[C@](C)(CC[C@@H]12)O[C@H]3OC(=O)Cc1ccccc1 — lower, -0.51
- CCO[C@H]1O[C@@H]2O[C@@]3(C)CC[C@H]4C(C)=C(F)C[C@@H]([C@H]1C)[C@@]24OO3 — within 0.2 log units, -0.12
- CCC[C@@]12CC[C@H]3[C@H](C)CC[C@H]4CC(=O)O[C@H](O1)[C@]43OO2 — higher, 0.83
- CCC[C@H]1C(=O)O[C@@H]2O[C@@]3(C)CC[C@H]4[C@H](C)CC[C@@H]1[C@@]24O3 — lower, -4
- COC1O[C@@H]2O[C@@]3(C)CC[C@H]4[C@H](C)CC[C@@H]([C@H]1C)[C@@]24OO3 (stereo partly specified) — higher, 0.28
- C[C@@H]1CCC2[C@@H](C)C(=O)OC3OC(C)(C)OO[C@@]32C1 (stereo partly specified) — within 0.2 log units, -0.15
- C[C@]12CC[C@H]3CCCC[C@@]3(OO1)[C@H](OCc1ccccc1)O2 — within 0.2 log units, -0.09
- CO[C@H]1O[C@]2(C)OO[C@]13[C@H](CCO)CCC[C@@H]3CC2(C)C — lower, -1.8
- CCC[C@H](Cc1ccccc1)OC1O[C@@H]2O[C@@]3(C)CC[C@H]4[C@H](C)CC[C@@H]([C@H]1C)[C@@]24OO3 (stereo partly specified) — within 0.2 log units, -0.09
- C[C@@H]1CC[C@@H]2[C@]34OO[C@](C)(CC[C@@H]13)O[C@H]4OC(=O)[C@@]2(Br)CBr — lower, -1.64
- COC(=O)C[C@H](C)OC1O[C@@H]2O[C@@]3(C)CC[C@H]4[C@H](C)CC[C@@H]([C@H]1C)[C@@]24OO3 (stereo partly specified) — higher, 0.87
- CO[C@H]1O[C@@]2(C)CC[C@H]3CCC[C@@H](CCOCc4c(C)noc4C)[C@]31OO2 — higher, 0.58
- CO[C@]1(C)CC[C@H]2[C@H](C)CCC[C@]2(C=O)OO1 — lower, -3.3
- CC[C@@]12CC[C@H]3[C@H](C)CC[C@H]4CC(=O)O[C@H](O1)[C@]43O2 — lower, -4
- CC(C)C[C@@]12CC[C@H]3[C@H](C)CC[C@H]4CCO[C@H](O1)[C@]43O2 — lower, -4
- CCC[C@H]1CO[C@@H]2O[C@@]3(C)CC[C@H]4[C@H](C)CC[C@@H]1[C@@]24OO3 — higher, 0.74
- CCCCC[C@H]1C(=O)O[C@@H]2O[C@@]3(C)CC[C@H]4[C@H](C)CC[C@@H]1[C@@]24OO3 — higher, 1.02
